Patent EP0062319A1, “3-Methyl-1-(2-(3-naphthyloxy)-ethyl)-2-pyrazolin-5-one for the treatment of the metastasis and growth of tumour cells” (BAYER AG, priority 1981, dated 1982)

System: B-16a-Zellen
Assay: DNA synthesis by 3H-thymidine uptake in B-16a cells in vitro
Type: cell-based, Mäuse
Details: 0,1, 1,0, 10 and 25 µg/ml, 4 h and 18 h, Fig. 1, relative to control = 100 %
Text: Die antineoplastische Wirksamkeit wurde in vitro durch Messung der DNS-Synthese sowohl von B-16a- als auch von Lewis-Lungenkarzinom-Zellen durch eine Methode gemessen, der die Thymidin-Aufnahme zugrundeliegt. Zellen, die in Vorbereitung der Zellteilung DNS synthetisieren, sind durch ihre Fähigkeit gekennzeichnet, Thymidin aufzunehmen. Demnach ist die Zell-Proliferation mit der DNS-Synthese verbunden. Wenn die Menge der durch die Tumorzellen synthetisierten DNS vermindert wird, so ist das ein Anzeichen dafür, daß die Zellteilung und damit das Tumorwachstum gehemmt worden ist.
B-16a- und Lewis-Lungenkarzinom-Zellen wurden wie vor- stehend beschrieben erhalten. Die dispergierten Zellen wurden in sterilen 25 ml-Erlenmeyer-Kolben aus Kunststoff auf eine Konzentration von 1 x 10^5 Zellen/ml in MEM verdünnt. Tritium-markiertes Thymidin (^3H) mit einer spezifischen Aktivität von […] (50-80 Ci/mmol) wurde mit […] (2 µCi/ml) zu jedem ml der Zellsuspension hinzugefügt.
Zu einer Reihe von Kolben, die die B-16 - und Lewis-Lungenkarzinom-Zellen enthielten, wurde die Pyrazolon-Verbindung in Mengen von 0,1 , 1,0 , 10 und 25 µg/ml des Gesamtvolumens hinzugefügt. […]

CC1=NN(CCOc2ccc3ccccc3c2)C(=O)C1 [3-Methyl-1-[2-(2-naphthyloxy)-ethyl]-2-pyrazolin-5-on]
DNS-Synthese (3H-Thymidinaufnahme): konzentrationsabhängige Abnahme der DNS-Synthese
